# Columns and labels:
# [1] = target: T1, recombinant human ALK5 (TGF-βR1) protein (Homo sapiens, UniProt P36897); assay: Biochemical ALK5 (TGF-βR1) assay to measure pKi (LANCE Ultra ULight kinase assay); details: apparent pKi, converted from pIC50 by Cheng-Prusoff
# T1 construct: purchased Life Technologies PR9075A
# T1 sequence (P36897 34-503): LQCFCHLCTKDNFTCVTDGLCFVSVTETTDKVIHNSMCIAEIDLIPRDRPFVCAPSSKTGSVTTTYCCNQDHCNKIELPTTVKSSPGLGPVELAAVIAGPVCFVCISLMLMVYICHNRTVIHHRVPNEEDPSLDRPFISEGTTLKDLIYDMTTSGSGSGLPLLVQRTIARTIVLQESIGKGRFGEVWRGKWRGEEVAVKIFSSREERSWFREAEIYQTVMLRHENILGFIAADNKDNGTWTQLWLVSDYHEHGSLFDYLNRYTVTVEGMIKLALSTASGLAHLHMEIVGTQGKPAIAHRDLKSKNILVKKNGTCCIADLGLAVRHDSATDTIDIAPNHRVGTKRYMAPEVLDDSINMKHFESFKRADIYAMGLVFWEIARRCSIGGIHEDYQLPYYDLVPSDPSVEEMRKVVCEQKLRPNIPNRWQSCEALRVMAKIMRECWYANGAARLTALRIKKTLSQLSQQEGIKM
# Method in brief: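 Enzyme preincubated with compound for 60 min at room temperature, then reacted with ATP (125 μM as 5× stock) for 60 min at 37 °C. Stopped with EDTA plus Eu-anti-phospho-Topoisomerase 2-alpha (Thr1342) antibody and read by TR-FRET at 665 nm. pIC50 from a 4-parameter fit, converted to pKi by Cheng-Prusoff.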
# [2] = test system: TGF-β-stimulated SMAD3 phosphorylation in BEAS-2B cells; assay: Cellular ALK5 potency assay, inhibition of TGF-β stimulated pSMAD3 formation in BEAS-2B cells; format: cell-based; details: Homo sapiens, pSMAD3, TGF-β 10 ng/mL, read-out: BEAS2B pIC50 (converted)
# Method in brief: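 Reported as pIC50, potency reflects dose-dependent loss of AlphaLISA pSMAD3 signal versus TGF-β-stimulated, compound-free BEAS-2B cells. Compound was applied for 1 h in BSA-containing HBSS buffer before a 30-min challenge with TGF-β at 10 ng/mL final.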
SMILES,Ki [1] [nM],IC50 [2] [nM]
"Cc1cccc(-c2nccc(Nc3ccnc(Nc4ccc5[nH]ncc5c4)n3)n2)n1 [Compound 284, N2-(1H-indazol-5-yl)-N4-[2-(6-methyl-2-pyridyl)pyrimidin-4-yl]pyrimidine-2,4-diamine]",0.398 to 3.16,≤ 20
"Cc1cccc(-c2nccc(Nc3ccnc(Nc4cnn(CCCN)c4)n3)n2)n1 [Compound 286, N2-[1-(3-aminopropyl)pyrazol-4-yl]-N4-[2-(6-methyl-2-pyridyl)pyrimidin-4-yl]pyrimidine-2,4-diamine]",0.0398 to 0.316,200 to 1260
"Cc1cccc(-c2nccc(Nc3ccnc(Nc4nc(CN5CCNCC5)cs4)n3)n2)n1 [Compound 287, N4-(2-(6-methylpyridin-2-yl)pyrimidin-4-yl)-N2-(4-(piperazin-1-ylmethyl)thiazol-2-yl)pyrimidine-2,4-diamine]",0.398 to 3.16,25.1 to 158
"Cc1cccc(-c2nccc(Nc3ccnc(Nc4cccc(NC(=O)C5CCNCC5)c4)n3)n2)n1 [Compound 288, N-[3-[[4-[[2-(6-methyl-2-pyridyl)pyrimidin-4-yl]amino]pyrimidin-2-yl]amino]phenyl]piperidine-4-carboxamide]",0.0398 to 0.316,≤ 20
"Cc1cccc(-c2nccc(Nc3ccnc(Nc4nc(C(=O)O[C@@H]5CCN(C)C5)cs4)n3)n2)n1 [Compound 291, [(3R)-1-methylpyrrolidin-3-yl] 2-[[4-[[2-(6-methyl-2-pyridyl)pyrimidin-4-yl]amino]pyrimidin-2-yl]amino]thiazole-4-carboxylate]",0.398 to 3.16,25.1 to 158
"CNC(=O)[C@H]1CN(Cc2ccc(Nc3nccc(Nc4ccnc(-c5cccc(C)n5)n4)n3)cc2)CCN1 [Compound 293, (2R)-N-methyl-4-[[4-[[4-[[2-(6-methyl-2-pyridyl)pyrimidin-4-yl]amino]pyrimidin-2-yl]amino]phenyl]methyl] piperazine-2-carboxamide]",0.0398 to 0.316,25.1 to 158
"Cc1cccc(-c2nccc(Nc3ccnc(Nc4ccc(F)c(CO)c4)n3)n2)n1 [Compound 294, [2-fluoro-5-[[4-[[2-(6-methyl-2-pyridyl)pyrimidin-4-yl]amino]pyrimidin-2-yl]amino]phenyl]methanol]",0.0398 to 0.316,≤ 20
"Cc1cccc(-c2nccc(Nc3ccnc(Nc4ccc(Cl)c(CO)c4)n3)n2)n1 [Compound 295, [2-chloro-5-[[4-[[2-(6-methyl-2-pyridyl)pyrimidin-4-yl]amino]pyrimidin-2-yl]amino]phenyl]methanol]",0.0398 to 0.316,25.1 to 158
"Cc1cccc(-c2nccc(Nc3ccnc(Nc4ccc(NS(=O)(=O)C5CNC5)cc4)n3)n2)n1 [Compound 296, N-[4-[[4-[[2-(6-methyl-2-pyridyl)pyrimidin-4-yl]amino]pyrimidin-2-yl]amino]phenyl]azetidine-3-sulfonamide]",0.398 to 3.16,200 to 1260
"Cc1cccc(-c2nccc(Nc3ccnc(Nc4ccc(CN5CCC(C(=O)O[C@H]6CCN(C)C6)CC5)cc4)n3)n2)n1 [Compound 297, [(3S)-1-methylpyrrolidin-3-yl] 1-[[4-[[4-[[2-(6-methyl-2-pyridyl)pyrimidin-4-yl]amino]pyrimidin-2-yl]amino]phenyl]methyl] piperidine-4-carboxylate]",0.0398 to 0.316,200 to 1260
"Cc1cccc(-c2nccc(Nc3ccnc(Nc4cccc(NC(=O)C5(O)CNC5)c4)n3)n2)n1 [Compound 299, 3-hydroxy-N-[3-[[4-[[2-(6-methyl-2-pyridyl)pyrimidin-4-yl]amino]pyrimidin-2-yl]amino]phenyl]azetidine-3-carboxamide]",0.0398 to 0.316,25.1 to 158
"Cc1cccc(-c2nccc(Nc3ccnc(Nc4ccc(N5CCOCC5)c(F)c4)n3)n2)n1 [Compound 300, N2-(3-fluoro-4-morpholino-phenyl)-N4-[2-(6-methyl-2-pyridyl)pyrimidin-4-yl]pyrimidine-2,4-diamine]",0.0398 to 0.316,25.1 to 158
"Cc1cccc(-c2nccc(Nc3ccnc(Nc4ccc(CN5CCN(CCO)CC5)cc4)n3)n2)n1 [Compound 301, 2-[4-[[4-[[4-[[2-(6-methyl-2-pyridyl)pyrimidin-4-yl]amino]pyrimidin-2-yl]amino]phenyl]methyl]piperazin-1-yl]ethanol]",0.0398 to 0.316,25.1 to 158
"Cc1cccc(-c2nccc(Nc3ccnc(Nc4ccc(NS(=O)(=O)N5CCN(C)CC5)cc4)n3)n2)n1 [Compound 303, 4-methyl-N-[4-[[4-[[2-(6-methyl-2-pyridyl)pyrimidin-4-yl]amino]pyrimidin-2-yl]amino]phenyl]piperazine-1-sulfonamide]",0.398 to 3.16,25.1 to 158
"CCOC(=O)Cc1ccc(Nc2nccc(Nc3ccnc(-c4cccc(C)n4)n3)n2)cc1 [Compound 304, ethyl 2-[4-[[4-[[2-(6-methyl-2-pyridyl)pyrimidin-4-yl]amino]pyrimidin-2-yl]amino]phenyl]acetate]",0.398 to 3.16,25.1 to 158
"Cc1cccc(-c2nccc(Nc3ccnc(Nc4cccc(C(=O)O[C@H]5CCN(C)C5)c4)n3)n2)n1 [Compound 308, [(3S)-1-methylpyrrolidin-3-yl] 3-[[4-[[2-(6-methyl-2-pyridyl)pyrimidin-4-yl]amino]pyrimidin-2-yl]amino]benzoate]",0.398 to 3.16,200 to 1260
"Cc1cccc(-c2nccc(Nc3ccnc(Nc4ccc(NCC5(CO)CNC5)cc4)n3)n2)n1 [Compound 310, [3-[[4-[[4-[[2-(6-methyl-2-pyridyl)pyrimidin-4-yl]amino]pyrimidin-2-yl]amino]anilino]methyl]azetidin-3-yl] methanol]",0.398 to 3.16,25.1 to 158

# The next lines start with results.
Ki [1] [nM],SMILES,IC50 [2] [nM]
0.0398 to 0.316,"Cc1cccc(-c2nccc(Nc3ccnc(Nc4ccc(CN5CCN[C@H](C(=O)O)C5)cc4)n3)n2)n1 [Compound 283, (2S)-4-[[4-[[4-[[2-(6-methyl-2-pyridyl)pyrimidin-4-yl]amino]pyrimidin-2-yl]amino]phenyl]methyl] piperazine-2-carboxylic acid]",200 to 1260
0.398 to 3.16,"Cc1cccc(-c2nccc(Nc3ccnc(Nc4ccc(O)cc4)n3)n2)n1 [Compound 285, 4-[[4-[[2-(6-methyl-2-pyridyl)pyrimidin-4-yl]amino]pyrimidin-2-yl]amino]phenol]",25.1 to 158
0.0398 to 0.316,"Cc1cccc(-c2nccc(Nc3ccnc(Nc4ccc(N5CCC(N)C5)cc4)n3)n2)n1 (stereo not drawn) [Compound 289, N2-[4-(3-aminopyrrolidin-1-yl)phenyl]-N4-[2-(6-methyl-2-pyridyl)pyrimidin-4-yl]pyrimidine-2,4-diamine]",25.1 to 158
0.0398 to 0.316,"Cc1cccc(-c2nccc(Nc3ccnc(Nc4ccc(C(=O)N5CCNCC5)cc4)n3)n2)n1 [Compound 290, [4-[[4-[[2-(6-methyl-2-pyridyl)pyrimidin-4-yl]amino]pyrimidin-2-yl]amino]phenyl]-piperazin-1-yl-methanone]",25.1 to 158
0.398 to 3.16,"Cc1cccc(-c2nccc(Nc3ccnc(Nc4cccc(C(=O)N5CCN(C(C)C)CC5)c4)n3)n2)n1 [Compound 292, (4-isopropylpiperazin-1-yl)-[3-[[4-[[2-(6-methyl-2-pyridyl)pyrimidin-4-yl]amino]pyrimidin-2-yl]amino]phenyl]methanone]",25.1 to 158
0.0398 to 0.316,"Cc1cccc(-c2nccc(Nc3ccnc(Nc4cccc(NC(=O)N5CCNCC5)c4)n3)n2)n1 [Compound 298, N-[3-[[4-[[2-(6-methyl-2-pyridyl)pyrimidin-4-yl]amino]pyrimidin-2-yl]amino]phenyl]piperazine-1-carboxamide]",25.1 to 158
0.0398 to 0.316,"Cc1cccc(-c2nccc(Nc3ccnc(Nc4ccc(N5CCC(CN)CC5)cc4)n3)n2)n1 [Compound 302, N2-[4-[4-(aminomethyl)-1-piperidyl]phenyl]-N4-[2-(6-methyl-2-pyridyl)pyrimidin-4-yl]pyrimidine-2,4-diamine]",25.1 to 158
0.0398 to 0.316,"Cc1cccc(-c2nccc(Nc3ccnc(Nc4ccc(CN5CCN(C)CC5)cc4)n3)n2)n1 [Compound 305, N2-[4-[(4-methylpiperazin-1-yl)methyl]phenyl]-N4-[2-(6-methyl-2-pyridyl)pyrimidin-4-yl]pyrimidine-2,4-diamine]",25.1 to 158
3.98 to 31.6,"Cc1cccc(-c2nccc(Nc3ccnc(Nc4cccc(S(=O)(=O)N5CCNCC5)c4)n3)n2)n1 [Compound 306, N4-[2-(6-methyl-2-pyridyl)pyrimidin-4-yl]-N2-(3-piperazin-1-ylsulfonylphenyl)pyrimidine-2,4-diamine]",25.1 to 158
0.0398 to 0.316,"COC(=O)[C@@H]1CN(c2ccc(Nc3nccc(Nc4ccnc(-c5cccc(C)n5)n4)n3)cc2)CCN1 [Compound 307, methyl (2S)-4-[4-[[4-[[2-(6-methyl-2-pyridyl)pyrimidin-4-yl]amino]pyrimidin-2-yl]amino]phenyl]piperazine-2-carboxylate]",25.1 to 158
